Reference: PubChem BioAssay (NCI)
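Interpolation was linear, between the two tested concentrations surrounding the appropriate level; five concentrations were tested over 48 hours in 96-well plates. At the GI50, growth is halved. Definition used: TGI = concentration required for complete inhibition of growth.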

Legend:
Test in all cases: NCI tumour cell line growth inhibition, 48 h
CCRF-CEM leukemia = test system: CCRF-CEM leukemia
DU-145 prostate = test system: DU-145 prostate
HT29 colon = test system: HT29 colon
MDA-MB-231 breast = test system: MDA-MB-231 breast
NCI-H226 lung = test system: NCI-H226 lung
NCI-H522 lung = test system: NCI-H522 lung
OVCAR-8 ovarian = test system: OVCAR-8 ovarian
SK-MEL-28 melanoma = test system: SK-MEL-28 melanoma
SK-MEL-5 melanoma = test system: SK-MEL-5 melanoma
SW-620 colon = test system: SW-620 colon

Cn1c([N+](=O)[O-])cnc1/C=C1\Oc2ccccc2C1=O
GI50 (CCRF-CEM leukemia): 0.168 µM | TGI (CCRF-CEM leukemia): 1.38 µM | GI50 (DU-145 prostate): 0.307 µM | TGI (DU-145 prostate): 1.15 µM | GI50 (HT29 colon): 0.203 µM | TGI (HT29 colon): 0.629 µM | GI50 (MDA-MB-231 breast): 0.703 µM | TGI (MDA-MB-231 breast): 4.39 µM | GI50 (NCI-H226 lung): 1.68 µM | TGI (NCI-H226 lung): 4.91 µM | GI50 (NCI-H522 lung): 0.552 µM | TGI (NCI-H522 lung): 2.26 µM | GI50 (OVCAR-8 ovarian): 0.186 µM | TGI (OVCAR-8 ovarian): 0.677 µM | GI50 (SK-MEL-28 melanoma): 0.43 µM | TGI (SK-MEL-28 melanoma): 3.36 µM | GI50 (SK-MEL-5 melanoma): 0.234 µM | TGI (SK-MEL-5 melanoma): 0.727 µM | GI50 (SW-620 colon): 0.15 µM | TGI (SW-620 colon): 2.02 µM

CC[C@H](NC(=O)[C@H](C)NC)C(=O)N1C[C@@H](O)C[C@H]1Cc1c(-c2[nH]c3cc(F)ccc3c2C[C@@H]2C[C@H](O)CN2C(=O)[C@H](CC)NC(=O)[C@H](C)NC)[nH]c2cc(F)ccc12
GI50 (CCRF-CEM leukemia): 1.51 µM | TGI (CCRF-CEM leukemia): > 100 µM | GI50 (DU-145 prostate): > 100 µM | TGI (DU-145 prostate): > 100 µM | GI50 (HT29 colon): 62 µM | TGI (HT29 colon): > 100 µM | GI50 (MDA-MB-231 breast): 0.0349 µM | TGI (MDA-MB-231 breast): 2.18 µM | GI50 (NCI-H226 lung): > 100 µM | TGI (NCI-H226 lung): > 100 µM | GI50 (NCI-H522 lung): 8.21 µM | TGI (NCI-H522 lung): 35.1 µM | GI50 (OVCAR-8 ovarian): 31.2 µM | TGI (OVCAR-8 ovarian): > 100 µM | GI50 (SK-MEL-28 melanoma): > 100 µM | TGI (SK-MEL-28 melanoma): > 100 µM | GI50 (SK-MEL-5 melanoma): 26.2 µM | TGI (SK-MEL-5 melanoma): > 53.8 µM | GI50 (SW-620 colon): > 100 µM | TGI (SW-620 colon): > 100 µM

ClCc1cccc(Cn2cnc3c(NC45CC6CC(CC(C6)C4)C5)ncnc32)c1
GI50 (CCRF-CEM leukemia): 16 µM | TGI (CCRF-CEM leukemia): > 69.1 µM | GI50 (DU-145 prostate): 17.3 µM | TGI (DU-145 prostate): 46.6 µM | GI50 (HT29 colon): 23.9 µM | TGI (HT29 colon): > 100 µM | GI50 (MDA-MB-231 breast): 15.5 µM | TGI (MDA-MB-231 breast): 39.3 µM | GI50 (NCI-H226 lung): 22.9 µM | TGI (NCI-H226 lung): 69.2 µM | GI50 (NCI-H522 lung): 17.4 µM | TGI (NCI-H522 lung): 39.2 µM | GI50 (OVCAR-8 ovarian): 17.8 µM | TGI (OVCAR-8 ovarian): 50.8 µM | GI50 (SK-MEL-28 melanoma): 25 µM | TGI (SK-MEL-28 melanoma): > 78.7 µM | GI50 (SK-MEL-5 melanoma): 16.4 µM | TGI (SK-MEL-5 melanoma): 31.7 µM | GI50 (SW-620 colon): 19.1 µM | TGI (SW-620 colon): 46.2 µM

Cc1nc2sc(C(=O)Nc3cccc(Cl)c3C)c(N)c2cc1C(=O)/C=C/c1ccccc1
GI50 (CCRF-CEM leukemia): 0.176 µM | TGI (CCRF-CEM leukemia): > 50 µM | GI50 (DU-145 prostate): 0.769 µM | TGI (DU-145 prostate): 2.84 µM | GI50 (HT29 colon): 0.178 µM | TGI (HT29 colon): 0.888 µM | GI50 (MDA-MB-231 breast): 0.786 µM | TGI (MDA-MB-231 breast): 2.26 µM | GI50 (NCI-H226 lung): 0.483 µM | TGI (NCI-H226 lung): 1.68 µM | GI50 (NCI-H522 lung): 0.172 µM | TGI (NCI-H522 lung): 0.999 µM | GI50 (OVCAR-8 ovarian): 0.543 µM | TGI (OVCAR-8 ovarian): > 14.3 µM | GI50 (SK-MEL-28 melanoma): 0.641 µM | TGI (SK-MEL-28 melanoma): 2.88 µM | GI50 (SK-MEL-5 melanoma): 0.572 µM | TGI (SK-MEL-5 melanoma): 1.43 µM | GI50 (SW-620 colon): 0.206 µM | TGI (SW-620 colon): 1.32 µM

COc1cc(Nc2nccc(Nc3ccc4c(C)[nH]nc4c3)n2)cc(OC)c1OC
GI50 (CCRF-CEM leukemia): 6 µM | TGI (CCRF-CEM leukemia): > 25 µM | GI50 (DU-145 prostate): 2.44 µM | TGI (DU-145 prostate): 7.43 µM | GI50 (HT29 colon): 0.916 µM | TGI (HT29 colon): 4.49 µM | GI50 (MDA-MB-231 breast): 1.76 µM | TGI (MDA-MB-231 breast): 10.5 µM | GI50 (NCI-H226 lung): 1.01 µM | TGI (NCI-H226 lung): 7.1 µM | GI50 (NCI-H522 lung): 1.52 µM | TGI (NCI-H522 lung): 7.18 µM | GI50 (OVCAR-8 ovarian): 3.39 µM | TGI (OVCAR-8 ovarian): 10.2 µM | GI50 (SK-MEL-28 melanoma): 3.28 µM | TGI (SK-MEL-28 melanoma): 14.4 µM | GI50 (SK-MEL-5 melanoma): 2.69 µM | TGI (SK-MEL-5 melanoma): 5.96 µM | GI50 (SW-620 colon): 2.71 µM | TGI (SW-620 colon): 15.1 µM

CCOC(=O)Nc1nc2ccc(Cn3cccc3)cc2[nH]1
TGI (CCRF-CEM leukemia): 25.1 µM | TGI (DU-145 prostate): > 52.5 µM | TGI (HT29 colon): > 56.3 µM | TGI (MDA-MB-231 breast): > 27.2 µM | TGI (NCI-H226 lung): 32.1 µM | TGI (NCI-H522 lung): 2.1 µM | TGI (OVCAR-8 ovarian): > 100 µM | TGI (SK-MEL-28 melanoma): > 100 µM | TGI (SK-MEL-5 melanoma): > 38.6 µM | TGI (SW-620 colon): > 100 µM

NOCC(=O)O
GI50 (CCRF-CEM leukemia): 94 µM | TGI (CCRF-CEM leukemia): > 100 µM | GI50 (DU-145 prostate): > 100 µM | TGI (DU-145 prostate): > 100 µM | GI50 (HT29 colon): 58.7 µM | TGI (HT29 colon): > 100 µM | GI50 (MDA-MB-231 breast): 53.2 µM | TGI (MDA-MB-231 breast): > 100 µM | GI50 (NCI-H226 lung): > 100 µM | TGI (NCI-H226 lung): > 100 µM | GI50 (NCI-H522 lung): 25.9 µM | TGI (NCI-H522 lung): > 100 µM | GI50 (OVCAR-8 ovarian): > 100 µM | TGI (OVCAR-8 ovarian): > 100 µM | GI50 (SK-MEL-28 melanoma): > 100 µM | TGI (SK-MEL-28 melanoma): > 100 µM | GI50 (SK-MEL-5 melanoma): > 100 µM | TGI (SK-MEL-5 melanoma): > 100 µM | GI50 (SW-620 colon): > 100 µM | TGI (SW-620 colon): > 100 µM

COc1ccc(CN(C)c2ccc(CO)c(Cl)c2)cc1
GI50 (CCRF-CEM leukemia): 32.9 µM | TGI (CCRF-CEM leukemia): > 100 µM | GI50 (DU-145 prostate): 34.2 µM | TGI (DU-145 prostate): > 100 µM | GI50 (HT29 colon): 5.5 µM | TGI (HT29 colon): > 88.3 µM | GI50 (MDA-MB-231 breast): 22.7 µM | TGI (MDA-MB-231 breast): > 88.8 µM | GI50 (NCI-H226 lung): 0.125 µM | TGI (NCI-H226 lung): 0.279 µM | GI50 (NCI-H522 lung): 22.4 µM | TGI (NCI-H522 lung): > 80.7 µM | GI50 (OVCAR-8 ovarian): 19.6 µM | TGI (OVCAR-8 ovarian): > 100 µM | GI50 (SK-MEL-28 melanoma): 24.6 µM | TGI (SK-MEL-28 melanoma): > 100 µM | GI50 (SK-MEL-5 melanoma): 8.24 µM | TGI (SK-MEL-5 melanoma): 21.9 µM | GI50 (SW-620 colon): 4.53 µM | TGI (SW-620 colon): > 100 µM

O=c1c2c(nc3n1CCS3)[nH]c1ccccc12
GI50 (CCRF-CEM leukemia): > 100 µM | TGI (CCRF-CEM leukemia): > 100 µM | GI50 (DU-145 prostate): > 100 µM | TGI (DU-145 prostate): > 100 µM | GI50 (HT29 colon): > 100 µM | TGI (HT29 colon): > 100 µM | GI50 (MDA-MB-231 breast): 33.4 µM | TGI (MDA-MB-231 breast): > 100 µM | GI50 (NCI-H226 lung): 70.3 µM | TGI (NCI-H226 lung): > 100 µM | GI50 (NCI-H522 lung): > 100 µM | TGI (NCI-H522 lung): > 100 µM | GI50 (OVCAR-8 ovarian): > 100 µM | TGI (OVCAR-8 ovarian): > 100 µM | GI50 (SK-MEL-28 melanoma): 90.3 µM | TGI (SK-MEL-28 melanoma): > 100 µM | GI50 (SK-MEL-5 melanoma): 2.75 µM | TGI (SK-MEL-5 melanoma): > 100 µM | GI50 (SW-620 colon): > 100 µM | TGI (SW-620 colon): > 100 µM

CC(C)(C#N)c1cc(Cn2cncn2)cc(C(C)(C)C#N)c1
GI50 (CCRF-CEM leukemia): 393 µM | TGI (CCRF-CEM leukemia): 2480 µM | GI50 (DU-145 prostate): > 10000 µM | TGI (DU-145 prostate): > 10000 µM | GI50 (HT29 colon): 3050 µM | TGI (HT29 colon): > 10000 µM | GI50 (MDA-MB-231 breast): 539 µM | TGI (MDA-MB-231 breast): > 10000 µM | GI50 (NCI-H226 lung): 718 µM | TGI (NCI-H226 lung): > 10000 µM | GI50 (NCI-H522 lung): 2630 µM | TGI (NCI-H522 lung): > 10000 µM | GI50 (OVCAR-8 ovarian): > 10000 µM | TGI (OVCAR-8 ovarian): > 10000 µM | GI50 (SK-MEL-28 melanoma): > 10000 µM | TGI (SK-MEL-28 melanoma): > 10000 µM | GI50 (SK-MEL-5 melanoma): 106 µM | TGI (SK-MEL-5 melanoma): > 10000 µM | GI50 (SW-620 colon): > 10000 µM | TGI (SW-620 colon): > 10000 µM
